In assay [1] the target is HPV E6 protein (Human papillomavirus type 16, UniProt P03126). Briefly: In vitro p53 degradation assay (E6 and p53 made in rabbit reticulocyte lysate).
Assay [2] deals with E6 (Human papillomavirus type 16, UniProt P03126). Nature of the assay: E6 inhibition (IC50, assay not specified). The assay is classed as biochemical. The text has this:
In some embodiments, the interaction of a compound described herein with E6 protein can be assayed in vitro, using routine techniques. In some in vitro assays, the ability of a compound described herein to inhibit the binding of E6 protein to an E6 binding protein can be tested. For example, the E6 protein can be labeled, e.g., radiolabeled, mixed with a compound described herein, and the binding of E6 protein to a binding protein, e.g., E6BP or E6AP, can be determined. Binding efficiency can be calculated as percent input bound minus background. Other in vitro assays can involve indirect measurements of the ability of a compound described herein to inhibit the binding of E6 protein to an E6 binding protein. For example, in vitro p53 degradation experiments can be performed, e.g., as described by Crook et al. (Cell, 67:547-556 (1991)). The IC50 for binding and p53 degradation for the compounds described herein can be tabulated using routine methods.
“IC50” as used herein is the concentration of a compound that produces half-maximal inhibition of protein activity, e.g., E6 activity.

HPV E6 protein, sequence (P03126 whole entry): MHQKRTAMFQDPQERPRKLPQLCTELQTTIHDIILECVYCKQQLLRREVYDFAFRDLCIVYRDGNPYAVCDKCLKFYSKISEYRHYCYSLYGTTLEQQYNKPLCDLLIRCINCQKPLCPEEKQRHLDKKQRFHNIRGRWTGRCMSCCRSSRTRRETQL
E6, sequence (P03126 whole entry): as above

For the compound `CCN(C(=O)c1cc2ccccc2cc1O)c1ccccc1`, the IC50 was in the range of 1000 to 2000 nM in assay [1] and 100 to 200 nM in assay [2].

Usually IC50 stands for the concentration that gives 50% inhibition.

The record behind these values is patent US7914769B2, “Compounds for treating human papillomavirus” (priority 2004, dated 2011).
